# Measurements as given in ChEMBL document CHEMBL1201862, “PubChem BioAssay data set” (2004).
# Calls of active or inactive are those of the source.
# How the values were obtained:
# Cytochrome P450 2C9 = Cytochrome P450 2C9 (Homo sapiens, UniProt P11712)
# Fatty acid synthase [1] = molecular target: T1, Fatty acid synthase (Homo sapiens, UniProt P49327); assay: FAS thioesterase domain inhibitors, dose response, biochemical, endpoint fluorescence intensity, uHTS hits (AID 624327); type: functional;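 also: fluorescence from hydrolysis of an O-methyl fluorescein acyl ester substrate by the enzyme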
# Fatty acid synthase [2] = molecular target: T1, Fatty acid synthase; assay: FAS thioesterase domain inhibitors, dose response, biochemical, kinetic fluorescence intensity (AID 624326); type: functional;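 also: rate of fluorescence rise from hydrolysis of a fluorogenic O-methyl fluorescein ester substrate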
# Cytochrome P450 3A4 = Cytochrome P450 3A4 (Homo sapiens, UniProt P08684);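 also: CYP3A4 tested as one member of a cytochrome P450 panel screen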
# Protein RecA = molecular target: T2, Protein RecA (Mycobacterium tuberculosis, UniProt P9WHJ3); assay: Fluorescence Cell-Free Homogeneous Dose Retest to Identify Inhibitors of RecA-Intein Splicing Activity. [Related pubchem assays (depositor defined):AID2097, AID2223, AID489010, AID492950]; type: functional
# T2 sequence (P9WHJ3 whole entry): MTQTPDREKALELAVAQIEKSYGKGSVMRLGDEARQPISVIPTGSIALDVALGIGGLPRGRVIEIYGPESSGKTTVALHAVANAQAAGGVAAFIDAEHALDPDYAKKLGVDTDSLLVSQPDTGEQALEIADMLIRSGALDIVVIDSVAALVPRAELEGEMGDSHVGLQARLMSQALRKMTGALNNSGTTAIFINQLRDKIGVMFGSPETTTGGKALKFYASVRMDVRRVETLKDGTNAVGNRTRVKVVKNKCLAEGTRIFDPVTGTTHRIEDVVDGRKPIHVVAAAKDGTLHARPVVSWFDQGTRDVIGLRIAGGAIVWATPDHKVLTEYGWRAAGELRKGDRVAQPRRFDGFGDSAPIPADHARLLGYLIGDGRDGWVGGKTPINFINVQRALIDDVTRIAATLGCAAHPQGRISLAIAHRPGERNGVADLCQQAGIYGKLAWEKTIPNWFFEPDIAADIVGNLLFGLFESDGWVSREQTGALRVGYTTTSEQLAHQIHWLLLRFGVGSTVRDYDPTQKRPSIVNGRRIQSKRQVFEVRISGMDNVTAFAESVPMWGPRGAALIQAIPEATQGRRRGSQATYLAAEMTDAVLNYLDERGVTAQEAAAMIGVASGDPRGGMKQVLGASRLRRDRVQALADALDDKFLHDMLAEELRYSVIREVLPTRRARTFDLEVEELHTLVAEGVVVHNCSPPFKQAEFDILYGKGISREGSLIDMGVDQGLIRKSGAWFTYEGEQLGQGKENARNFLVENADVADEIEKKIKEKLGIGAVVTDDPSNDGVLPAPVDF
# [3] = molecular target: T3, Replicative DNA helicase DnaB (Mycobacterium tuberculosis, UniProt P9WMR3); assay: DnaB intein splicing inhibitors, dose response, biochemical, cell-free fluorescence (AID 449749); type: functional
# T3 sequence (P9WMR3 whole entry): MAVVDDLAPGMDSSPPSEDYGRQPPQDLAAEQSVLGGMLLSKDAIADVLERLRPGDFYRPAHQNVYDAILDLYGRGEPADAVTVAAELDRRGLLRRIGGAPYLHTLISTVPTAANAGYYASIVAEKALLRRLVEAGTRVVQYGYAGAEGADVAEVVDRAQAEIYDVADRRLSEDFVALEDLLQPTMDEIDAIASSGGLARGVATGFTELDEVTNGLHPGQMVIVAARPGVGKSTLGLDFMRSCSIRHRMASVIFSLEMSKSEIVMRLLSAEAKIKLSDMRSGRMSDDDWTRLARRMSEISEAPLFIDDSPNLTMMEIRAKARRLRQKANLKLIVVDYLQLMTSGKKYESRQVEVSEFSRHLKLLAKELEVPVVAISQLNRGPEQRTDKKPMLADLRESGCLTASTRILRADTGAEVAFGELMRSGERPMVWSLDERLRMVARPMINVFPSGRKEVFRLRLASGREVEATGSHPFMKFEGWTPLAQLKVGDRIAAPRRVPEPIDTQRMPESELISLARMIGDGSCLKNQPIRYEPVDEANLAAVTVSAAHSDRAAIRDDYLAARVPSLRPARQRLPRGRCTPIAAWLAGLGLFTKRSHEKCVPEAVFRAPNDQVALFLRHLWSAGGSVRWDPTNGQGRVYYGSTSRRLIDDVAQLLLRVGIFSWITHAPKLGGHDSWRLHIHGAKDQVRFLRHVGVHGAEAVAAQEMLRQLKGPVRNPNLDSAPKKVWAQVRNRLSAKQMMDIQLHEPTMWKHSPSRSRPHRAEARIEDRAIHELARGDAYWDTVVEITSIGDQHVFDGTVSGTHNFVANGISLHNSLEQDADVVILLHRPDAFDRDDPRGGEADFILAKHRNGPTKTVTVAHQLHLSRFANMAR
# Cytochrome P450 2D6 = Cytochrome P450 2D6 (Homo sapiens, UniProt P10635);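 also: CYP2D6 member of a cytochrome P450 panel assay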
# Cytochrome P450 2C19 = Cytochrome P450 2C19 (Homo sapiens, UniProt P33261); assay: Cytochrome panel assay with activity outcomes. Panel member name: p450-cyp2c19 Compounds with AC50 equal or less than 10 uM are considered active; type: functional; conditions: read-out: AC50
# Cytochrome P450 1A2 = molecular target: T4, Cytochrome P450 1A2 (Homo sapiens, UniProt P05177);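 also: PubChem cytochrome P450 panel assay, CYP1A2 panel member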
# T4 sequence (P05177 whole entry): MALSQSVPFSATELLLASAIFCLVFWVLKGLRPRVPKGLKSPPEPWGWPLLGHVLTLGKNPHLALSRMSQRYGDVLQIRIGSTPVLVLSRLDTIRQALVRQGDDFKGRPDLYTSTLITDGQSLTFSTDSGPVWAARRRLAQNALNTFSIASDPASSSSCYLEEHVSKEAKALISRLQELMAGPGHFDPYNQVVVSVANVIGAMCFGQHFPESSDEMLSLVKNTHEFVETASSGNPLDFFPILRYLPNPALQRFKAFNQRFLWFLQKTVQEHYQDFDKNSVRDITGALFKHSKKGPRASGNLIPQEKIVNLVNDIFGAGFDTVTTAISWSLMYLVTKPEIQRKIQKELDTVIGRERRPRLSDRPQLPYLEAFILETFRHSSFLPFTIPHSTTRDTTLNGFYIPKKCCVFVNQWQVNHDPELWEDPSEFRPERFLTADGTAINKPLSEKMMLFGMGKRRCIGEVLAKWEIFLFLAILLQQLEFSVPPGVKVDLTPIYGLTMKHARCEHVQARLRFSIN
# H9c2 = assay: cells; type: functional, cell-based; conditions: Rattus norvegicus, H9c2, Myocardium;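 also: confirmatory concentration-response retest of ultra-high-throughput screening hits for modulation of myocardial damage; cell death induced by hydrogen peroxide oxidative stress; compound pretreatment for 60 min then peroxide exposure for 2 h; potency is for protecting the cells against peroxide damage rather than for killing them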
# Paired box protein Pax-8 = Paired box protein Pax-8 (Homo sapiens, UniProt Q06710); assay: inhibitors of PAX8-driven TPO luciferase reporter, dose response, RMG-I cells, cherry-pick (AID 687027); type: functional, cell-based;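 also: luciferase reporter driven by Pax8 target thyroperoxidase promoter measured by SteadyGlo luminescence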
# [4] = molecular target: T5, Rac GTPase-activating protein 1 (Homo sapiens, UniProt Q9H0H5); assay: MgcRacGAP GTPase-activating activity inhibitors, confirmation, biochemical, ADP Hunter fluorescence, primary and confirmatory (AID 624330); type: functional
# T5 sequence (Q9H0H5 whole entry): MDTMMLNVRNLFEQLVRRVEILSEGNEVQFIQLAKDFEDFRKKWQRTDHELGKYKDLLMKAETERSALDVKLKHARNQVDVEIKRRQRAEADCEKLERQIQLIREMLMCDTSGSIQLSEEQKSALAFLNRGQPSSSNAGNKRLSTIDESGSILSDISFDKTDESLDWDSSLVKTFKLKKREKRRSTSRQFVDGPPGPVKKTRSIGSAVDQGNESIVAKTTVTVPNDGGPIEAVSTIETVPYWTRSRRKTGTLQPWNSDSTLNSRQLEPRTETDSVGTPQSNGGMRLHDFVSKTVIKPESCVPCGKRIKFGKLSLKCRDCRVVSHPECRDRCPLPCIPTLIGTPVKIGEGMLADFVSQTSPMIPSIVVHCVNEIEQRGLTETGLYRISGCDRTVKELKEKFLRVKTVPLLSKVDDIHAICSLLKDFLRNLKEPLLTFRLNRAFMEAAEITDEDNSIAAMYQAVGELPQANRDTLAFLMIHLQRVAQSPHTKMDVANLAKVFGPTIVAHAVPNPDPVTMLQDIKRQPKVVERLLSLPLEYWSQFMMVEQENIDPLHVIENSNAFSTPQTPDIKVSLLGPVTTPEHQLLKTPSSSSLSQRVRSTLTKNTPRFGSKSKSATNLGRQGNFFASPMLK
# T1 sequence (P49327 whole entry, the tested form may be a part): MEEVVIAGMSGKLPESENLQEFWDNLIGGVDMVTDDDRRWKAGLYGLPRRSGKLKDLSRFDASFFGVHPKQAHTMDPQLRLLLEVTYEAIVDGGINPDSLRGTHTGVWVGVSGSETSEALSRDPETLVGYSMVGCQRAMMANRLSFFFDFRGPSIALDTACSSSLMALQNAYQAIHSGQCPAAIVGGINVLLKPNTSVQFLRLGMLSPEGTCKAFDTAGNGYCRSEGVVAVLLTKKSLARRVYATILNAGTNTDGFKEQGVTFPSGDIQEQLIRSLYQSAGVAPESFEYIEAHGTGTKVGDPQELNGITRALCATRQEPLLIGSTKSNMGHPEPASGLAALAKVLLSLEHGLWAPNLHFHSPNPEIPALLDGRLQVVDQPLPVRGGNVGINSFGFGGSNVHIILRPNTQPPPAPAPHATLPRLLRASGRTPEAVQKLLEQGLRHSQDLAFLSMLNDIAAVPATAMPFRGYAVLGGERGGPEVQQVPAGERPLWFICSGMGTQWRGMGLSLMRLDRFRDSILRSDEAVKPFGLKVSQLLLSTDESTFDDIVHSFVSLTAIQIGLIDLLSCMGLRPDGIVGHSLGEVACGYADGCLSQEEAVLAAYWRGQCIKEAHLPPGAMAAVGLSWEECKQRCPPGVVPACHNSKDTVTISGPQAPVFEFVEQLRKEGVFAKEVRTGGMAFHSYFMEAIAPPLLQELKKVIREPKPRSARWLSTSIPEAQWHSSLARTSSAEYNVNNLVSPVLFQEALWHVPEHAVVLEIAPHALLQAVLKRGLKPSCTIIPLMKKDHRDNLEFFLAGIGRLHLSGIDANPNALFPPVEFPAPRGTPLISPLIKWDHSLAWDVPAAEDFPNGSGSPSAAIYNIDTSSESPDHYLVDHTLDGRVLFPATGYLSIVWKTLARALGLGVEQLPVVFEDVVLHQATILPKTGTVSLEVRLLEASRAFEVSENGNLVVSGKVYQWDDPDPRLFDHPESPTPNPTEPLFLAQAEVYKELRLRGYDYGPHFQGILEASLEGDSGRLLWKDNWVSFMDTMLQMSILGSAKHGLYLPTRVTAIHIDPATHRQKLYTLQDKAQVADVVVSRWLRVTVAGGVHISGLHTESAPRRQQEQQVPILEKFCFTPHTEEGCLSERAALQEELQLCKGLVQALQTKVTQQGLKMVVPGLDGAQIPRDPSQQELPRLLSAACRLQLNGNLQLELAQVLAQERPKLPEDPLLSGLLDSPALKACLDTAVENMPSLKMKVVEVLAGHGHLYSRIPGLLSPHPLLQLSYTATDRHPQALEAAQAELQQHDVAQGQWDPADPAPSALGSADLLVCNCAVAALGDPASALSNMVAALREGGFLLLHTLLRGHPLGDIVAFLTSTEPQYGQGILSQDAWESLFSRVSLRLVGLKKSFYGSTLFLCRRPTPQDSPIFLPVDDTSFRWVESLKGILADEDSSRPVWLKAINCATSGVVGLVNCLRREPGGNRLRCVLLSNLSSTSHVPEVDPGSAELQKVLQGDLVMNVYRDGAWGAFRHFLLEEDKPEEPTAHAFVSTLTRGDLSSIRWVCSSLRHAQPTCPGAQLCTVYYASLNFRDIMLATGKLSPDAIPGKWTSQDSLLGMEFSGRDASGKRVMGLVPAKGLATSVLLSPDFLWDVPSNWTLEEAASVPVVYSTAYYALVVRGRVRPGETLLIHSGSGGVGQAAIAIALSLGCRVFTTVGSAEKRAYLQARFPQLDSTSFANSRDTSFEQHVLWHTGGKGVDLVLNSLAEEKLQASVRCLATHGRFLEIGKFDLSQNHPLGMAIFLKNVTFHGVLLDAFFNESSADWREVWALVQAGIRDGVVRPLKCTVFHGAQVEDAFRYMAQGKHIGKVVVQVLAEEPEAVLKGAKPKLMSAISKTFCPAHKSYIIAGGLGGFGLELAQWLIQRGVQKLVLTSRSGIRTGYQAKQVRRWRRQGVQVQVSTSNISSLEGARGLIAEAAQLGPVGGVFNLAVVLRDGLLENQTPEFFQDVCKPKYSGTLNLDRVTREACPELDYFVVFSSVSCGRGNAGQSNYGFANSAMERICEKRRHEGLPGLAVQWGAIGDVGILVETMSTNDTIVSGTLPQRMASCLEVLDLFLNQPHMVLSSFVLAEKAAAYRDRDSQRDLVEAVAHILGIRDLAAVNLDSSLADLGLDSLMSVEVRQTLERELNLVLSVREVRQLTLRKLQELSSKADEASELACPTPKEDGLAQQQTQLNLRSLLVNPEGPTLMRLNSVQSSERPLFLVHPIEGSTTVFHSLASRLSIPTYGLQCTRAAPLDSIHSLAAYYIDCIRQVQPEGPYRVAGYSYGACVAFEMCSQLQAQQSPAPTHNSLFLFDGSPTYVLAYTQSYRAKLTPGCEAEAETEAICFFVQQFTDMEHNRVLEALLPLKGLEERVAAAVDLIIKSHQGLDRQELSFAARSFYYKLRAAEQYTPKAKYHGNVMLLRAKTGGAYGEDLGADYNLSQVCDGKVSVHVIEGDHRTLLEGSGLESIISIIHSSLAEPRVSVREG
# Chain of Cytochrome P450 2C9 (P11712 whole entry, the tested form may be a part): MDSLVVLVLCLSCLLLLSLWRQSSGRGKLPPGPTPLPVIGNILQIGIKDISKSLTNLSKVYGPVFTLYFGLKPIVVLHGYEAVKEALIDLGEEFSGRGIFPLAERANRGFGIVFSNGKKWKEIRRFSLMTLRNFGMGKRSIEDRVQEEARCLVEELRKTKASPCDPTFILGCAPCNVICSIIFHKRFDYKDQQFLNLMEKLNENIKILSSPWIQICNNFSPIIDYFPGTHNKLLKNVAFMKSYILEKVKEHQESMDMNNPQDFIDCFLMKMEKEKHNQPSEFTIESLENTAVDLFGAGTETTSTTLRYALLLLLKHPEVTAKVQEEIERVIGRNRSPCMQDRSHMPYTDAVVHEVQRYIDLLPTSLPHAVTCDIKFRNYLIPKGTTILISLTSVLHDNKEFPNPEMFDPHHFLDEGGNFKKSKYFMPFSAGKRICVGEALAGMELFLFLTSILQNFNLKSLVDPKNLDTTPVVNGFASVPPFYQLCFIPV
# Chain of Cytochrome P450 3A4 (P08684 whole entry): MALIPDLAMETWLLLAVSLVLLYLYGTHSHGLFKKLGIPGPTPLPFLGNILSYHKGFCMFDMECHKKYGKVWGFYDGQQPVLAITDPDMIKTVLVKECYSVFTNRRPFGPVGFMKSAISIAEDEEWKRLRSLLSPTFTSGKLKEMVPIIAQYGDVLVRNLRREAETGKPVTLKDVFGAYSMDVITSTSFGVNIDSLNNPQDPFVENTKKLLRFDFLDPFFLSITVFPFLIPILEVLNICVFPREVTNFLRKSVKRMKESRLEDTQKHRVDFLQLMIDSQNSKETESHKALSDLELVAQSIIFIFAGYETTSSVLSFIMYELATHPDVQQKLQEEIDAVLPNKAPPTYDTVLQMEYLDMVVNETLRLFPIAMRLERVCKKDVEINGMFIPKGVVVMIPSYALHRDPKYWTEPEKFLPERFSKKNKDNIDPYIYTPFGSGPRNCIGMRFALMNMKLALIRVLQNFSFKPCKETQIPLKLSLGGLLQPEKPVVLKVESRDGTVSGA
# Chain of Paired box protein Pax-8 (Q06710 whole entry): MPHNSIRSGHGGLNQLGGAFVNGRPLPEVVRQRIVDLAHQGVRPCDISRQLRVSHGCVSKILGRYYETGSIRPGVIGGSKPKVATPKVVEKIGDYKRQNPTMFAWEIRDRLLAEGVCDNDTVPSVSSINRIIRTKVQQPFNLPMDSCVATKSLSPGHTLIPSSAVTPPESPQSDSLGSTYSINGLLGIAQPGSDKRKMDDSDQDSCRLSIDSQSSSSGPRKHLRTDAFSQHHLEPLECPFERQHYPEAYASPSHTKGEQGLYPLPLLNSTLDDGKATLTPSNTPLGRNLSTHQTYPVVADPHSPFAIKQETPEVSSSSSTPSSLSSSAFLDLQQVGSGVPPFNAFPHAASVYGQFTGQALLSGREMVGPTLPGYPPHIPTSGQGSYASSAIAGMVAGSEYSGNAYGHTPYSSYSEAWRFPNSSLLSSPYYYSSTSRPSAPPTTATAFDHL
# Chain of Cytochrome P450 2D6 (P10635 whole entry): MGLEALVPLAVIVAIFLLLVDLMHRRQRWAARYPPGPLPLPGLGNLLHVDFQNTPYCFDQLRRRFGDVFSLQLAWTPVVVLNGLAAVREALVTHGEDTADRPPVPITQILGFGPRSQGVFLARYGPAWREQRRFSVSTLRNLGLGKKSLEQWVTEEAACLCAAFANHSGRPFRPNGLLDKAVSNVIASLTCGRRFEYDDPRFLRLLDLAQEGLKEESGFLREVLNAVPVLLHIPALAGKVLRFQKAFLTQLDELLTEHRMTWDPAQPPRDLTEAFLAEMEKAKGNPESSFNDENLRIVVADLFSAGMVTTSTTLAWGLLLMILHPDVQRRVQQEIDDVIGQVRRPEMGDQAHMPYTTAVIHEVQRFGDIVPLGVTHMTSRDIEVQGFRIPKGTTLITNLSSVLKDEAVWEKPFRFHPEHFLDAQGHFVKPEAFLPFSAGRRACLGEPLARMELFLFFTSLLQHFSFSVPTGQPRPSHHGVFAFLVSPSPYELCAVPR
# Chain of Cytochrome P450 2C19 (P33261 whole entry): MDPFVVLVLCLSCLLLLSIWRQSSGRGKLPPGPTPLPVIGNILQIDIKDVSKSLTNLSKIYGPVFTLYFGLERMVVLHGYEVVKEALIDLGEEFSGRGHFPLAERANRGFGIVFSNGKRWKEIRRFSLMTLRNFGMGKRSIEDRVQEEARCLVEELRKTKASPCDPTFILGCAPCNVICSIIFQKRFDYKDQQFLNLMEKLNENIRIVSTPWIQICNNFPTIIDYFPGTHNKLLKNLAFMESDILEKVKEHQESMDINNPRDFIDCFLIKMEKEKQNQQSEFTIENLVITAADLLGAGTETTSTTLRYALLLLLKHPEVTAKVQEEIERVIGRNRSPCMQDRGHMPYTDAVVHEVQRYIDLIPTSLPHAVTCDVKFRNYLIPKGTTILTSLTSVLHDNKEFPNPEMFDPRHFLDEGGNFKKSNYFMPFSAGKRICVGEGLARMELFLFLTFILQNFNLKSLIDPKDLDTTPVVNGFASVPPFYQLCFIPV
smiles,measurement,setting,value
Cc1c(NC(=O)C2CCN(S(=O)(=O)c3ccc(Cl)cc3)CC2)c(=O)n(-c2ccccc2)n1C,AC50,Cytochrome P450 2C9,14.1 µM (inconclusive)
COc1ccc(NC(=O)CN(c2ccc([N+](=O)[O-])cc2)S(=O)(=O)c2ccccc2)c(OC)c1,IC50,Fatty acid synthase [1],4.43 µM (active)
same,IC50,Fatty acid synthase [2],5.78 µM (active)
CCOc1ccccc1C1C(C#N)=C(N)Oc2[nH]nc(CC)c21 (centres undefined),AC50,Cytochrome P450 3A4,7.08 µM (inconclusive)
same,EC50,Protein RecA,7.04 µM (active)
same,AC50,Cytochrome P450 2C9,17.8 µM (inconclusive)
same,AC50,[3],13.4 µM (active)
O=C(Nc1ccc(Cc2ccncc2)cc1)c1ccc(Cl)c([N+](=O)[O-])c1,IC50,Fatty acid synthase [1],10.2 µM (active)
same,IC50,Fatty acid synthase [2],10.9 µM (active)
COc1ccc(CCNC(=O)c2nnc(O)c3ccccc23)cc1,AC50,Cytochrome P450 3A4,7.08 µM (inconclusive)
same,AC50,Cytochrome P450 2D6,5.01 µM (inconclusive)
same,AC50,Cytochrome P450 2C9,3.16 µM (inconclusive)
same,AC50,Cytochrome P450 2C19,2.24 µM (inconclusive)
same,AC50,Cytochrome P450 1A2,7.08 µM (inconclusive)
O=[N+]([O-])c1ccc(SNc2ccccc2)c([N+](=O)[O-])c1,IC50,Fatty acid synthase [1],10.4 µM (active)
same,IC50,Fatty acid synthase [2],9.38 µM (active)
CC(=O)Nc1cc(-c2cccc(C(=O)N(C)C)c2)cn2c(-c3ccc(C(C)=O)cc3)cnc12,IC50,H9c2,> 79 µM (inactive)
O=C(N/N=C/c1coc2ccc(Cl)cc2c1=O)c1ccc(O)cc1,IC50,Fatty acid synthase [1],6.64 µM (active)
same,EC50,Protein RecA,16.1 µM (active)
same,IC50,Fatty acid synthase [2],4.84 µM (active)
same,AC50,[3],> 380 µM (inactive)
C[C@H](CO)N1C[C@H](C)[C@@H](CN(C)Cc2ccc(Cl)c(Cl)c2)OCCCC[C@H](C)Oc2ccc(NC(=O)Nc3ccccc3)cc2C1=O,AC50,Paired box protein Pax-8,8.65 µM (active)
CCn1cc(C(=O)N/N=C(/C)c2ccc(F)cc2)c(=O)c2cc(F)c(N3CCCC3)cc21,AC50,Cytochrome P450 2C9,10 µM (inconclusive)
CCn1c(-c2ccccc2)cs/c1=N\c1ccc(O)cc1,IC50,[4],31.7 µM (active)
CCCN(/C=N/c1sc2c(c1C#N)CCCCC2)CCC,AC50,Cytochrome P450 2D6,15.8 µM (inconclusive)
same,AC50,Cytochrome P450 2C9,12.6 µM (inconclusive)
CC1(C)OC(=O)C(/C=N/CC(O)c2ccccc2)=C(O)O1 (centres undefined),AC50,Cytochrome P450 2C9,31.6 µM (inconclusive)
same,AC50,Cytochrome P450 1A2,25.1 µM (inconclusive)
Nc1nc2c(ncn2[C@@H]2O[C@H](CO)[C@@H](O)[C@H]2O)c(=S)[nH]1 [THIOGUANOSINE],AC50,Paired box protein Pax-8,1.16 µM (active)
